Laboratory results: EP0847397B1, “WATER-SOLUBLE C-RING ANALOGUES OF 20 (S)-CAMPTOTHECIN” (DR. REDDY'S RESEARCH FOUNDATION, priority 1996, dated 1997)

Experiments:
[1] = Lactone stability in whole blood (HPLC); assay type: in vitro ADME; conditions: human, whole blood, 1 μM, 37°C, lactone peak area relative to zero time (100%); read-out: Lactone Stability in Whole Blood (after 3 hours)
Method: 2. Lactone Stability in whole blood:
2 ml of blood from a healthy volunteer was collected in a tube containing 40 µl of heparin (572 IU) to prevent coagulation, 4 mM and 40 µM working solutions of the drug in DMSO were prepared and added to aliquots of whole blood to give final concentration of 100 µM and 1 µM respectively. The drug is incubated in whole blood at 37°C and 20 µl samples are collected into 180 µl of chilled methanol (-30°C) at different time intervals (0, 1, 2 & 3 hrs). Vortex and then centrifuge at 11000 rpm for 3 min in a microcentrifuge at room temperature. Dilute 100 µl of the supernatant with water to 300-500 µl depending upon the signal response (UV for 100 µM concentration and fluoroscence for 1 µM concentration) of the compound. 200 µl of the diluted sample is injected on to the HPLC column previously equilibrated with the mobile phase. The area under peak corrsponding to lactone forms is measured. Zero time peak area is taken as 100%, and the proportion of lactone peak area at different time points is calculated to determine the equilibrium lactone stability as obtained by consistent lactone proportion over two successive time points. (Biochemistry, 1994; 33:10325-10336 and J. Pharm. Sci., 1995; 84:518-519).

U 251 = assay: NCI in vitro 60 human tumor cell line assay; assay type: cell-based; conditions: U-251, 48 h, read-out: Total Growth Inhibition (TGI)
Method: (§1) Each test compound was screened against a battery of 60 human cell lines obtained from eight organs. In a typical procedure, the cell suspensions that were diluted according to the particular cell type and the expected target cell density (5000-40,000 cells per well based on cell growth characteristics) were added into 96-well microtiter plates. Inoculates were allowed a preincubation period of 24h at 37°C. for stabilization. Dilutions at twice the intended test concentrations were added at time zero in 100-µl aliquots to microtiter plate wells. Usually test compounds were evaluated at five 10-fold dilutions. The highest well concentration used in the test is 10^-4M. The cells are then incubated in the presence of drug (the test compound) for further 48h in 5% CO2 atmosphere and 100% humidity. At the end of this time, the adherent cells are fixed to the plate by means of trichloroacetic acid, and after a number of washes, the cell layer is treated with the protein stain Sulforhodamine B. The optical density which is proportional to protein mass, is then read by automated spectrophotometric plate readers at a wavelength of 515 nm. Readings are transferred to a microcomputer and final reports are generated using especially developed software.

EKVX = assay: NCI in vitro 60 human tumor cell line assay; assay type: cell-based; conditions: 48 h, read-out: Total Growth Inhibition (TGI)
Method: as §1

H 322M = assay: NCI in vitro 60 human tumor cell line assay; assay type: cell-based; conditions: NCI-H322M, 48 h, read-out: Total Growth Inhibition (TGI)
Method: as §1

SK OV3 = assay: NCI in vitro 60 human tumor cell line assay; assay type: cell-based; conditions: SK-OV-3, 48 h, read-out: Total Growth Inhibition (TGI)
Method: (§2) Each test compound was screened against a battery of 60 human cell lines obtained from eight organs. In a typical procedure, the cell suspensions that were diluted according to the particular cell type and the expected target cell density (5000-40,000 cells per well based on cell growth characteristics) were added into 96-well microtiter plates. Inoculates were allowed a preincubation period of 24h at 37°C. for stabilization. Dilutions at twice the intended test concentrations were added at time zero in 100-µl aliquots to microtiter plate wells. Usually test compounds were evaluated at five 10-fold dilutions. The highest well concentration used in the test is 10^-4M. The cells are then incubated in the presence of drug (the test compound) for further 48h in 5% CO2 atmosphere and 100% humidity. At the end of this time, the adherent cells are fixed to the plate by means of trichloroacetic acid, and after a number of washes, the cell layer is treated with the protein stain Sulforhodamine B. The optical density which is proportional to protein mass, is then read by automated spectrophotometric plate readers at a wavelength of 515 nm.

OVCAR 8 = assay: NCI in vitro 60 human tumor cell line assay; assay type: cell-based; conditions: OVCAR-8, 48 h, read-out: Total Growth Inhibition (TGI)
Method: as §2

UO 31 = assay: NCI in vitro 60 human tumor cell line assay; assay type: cell-based; conditions: UO-31, 48 h, read-out: Total Growth Inhibition (TGI)
Method: as §1

SF 268 = assay: NCI in vitro 60 human tumor cell line assay; assay type: cell-based; conditions: SF-268, 48 h, read-out: Total Growth Inhibition (TGI)
Method: as §2

[2] = system: NCI's 60 human tumor cell line assay; assay: cells; assay type: cell-based; conditions: 60 cell, 48 h, read-out: IC50 (mean GI50 against NCI's 60 human tumor cell line assay)
HOP 62 = assay: NCI in vitro 60 human tumor cell line assay; assay type: cell-based; conditions: HOP-62, 48 h, read-out: Total Growth Inhibition (TGI)
HOP 92 = assay: NCI in vitro 60 human tumor cell line assay; assay type: cell-based; conditions: HOP-92, 48 h, read-out: Total Growth Inhibition (TGI)
H 226 = assay: NCI in vitro 60 human tumor cell line assay; assay type: cell-based; conditions: NCI-H226, 48 h, read-out: Total Growth Inhibition (TGI)
Method: as §1

H 23 = assay: NCI in vitro 60 human tumor cell line assay; assay type: cell-based; conditions: NCI-H23, 48 h, read-out: Total Growth Inhibition (TGI)
Method: as §1

H 522 = assay: NCI in vitro 60 human tumor cell line assay; assay type: cell-based; conditions: NCI-H522, 48 h, read-out: Total Growth Inhibition (TGI)
Method: as §1

COLO 205 = assay: NCI in vitro 60 human tumor cell line assay; assay type: cell-based; conditions: COLO 205, 48 h, read-out: Total Growth Inhibition (TGI)
Method: as §1

HCT 116 = assay: NCI in vitro 60 human tumor cell line assay; assay type: cell-based; conditions: HCT-116, 48 h, read-out: Total Growth Inhibition (TGI)
KM 12 = assay: NCI in vitro 60 human tumor cell line assay; assay type: cell-based; conditions: KM12, 48 h, read-out: Total Growth Inhibition (TGI)
Method: as §1

MDA-MB-435 = assay: NCI in vitro 60 human tumor cell line assay; assay type: cell-based; conditions: MDA-MB-435, 48 h, read-out: Total Growth Inhibition (TGI)
MDA-N = assay: NCI in vitro 60 human tumor cell line assay; assay type: cell-based; conditions: BREAST, 48h, read-out: Total Growth Inhibition (TGI)
Method: as §2

BT 549 = assay: NCI in vitro 60 human tumor cell line assay; assay type: cell-based; conditions: BT-549, 48 h, read-out: Total Growth Inhibition (TGI)
Method: as §1

T 47D = assay: NCI in vitro 60 human tumor cell line assay; assay type: cell-based; conditions: T47D, 48 h, read-out: Total Growth Inhibition (TGI)
Method: as §1

`CC[C@@]1(O)C(=O)OCc2c1cc1n(c2=O)C(OCCO)c2cc3ccccc3nc2-1` (stereo partly drawn) [Example 26, 5-(2'-Hydroxyethoxy)camptothecin] gave a remaining at 3 h, 1 µM [1] of 5.3%, an IC (TGI) (U 251) of 7.58 µM and an IC (TGI) (EKVX) of 63 µM. For the same compound, the IC (TGI) (H 322M) was 31.6 µM, the IC (TGI) (SK OV3) was 3.8 µM and the IC (TGI) (OVCAR 8) was 13.4 µM. For the same compound, the IC (TGI) (UO 31) was 3.89 µM and the IC (TGI) (SF 268) was 30.9 µM.
For `CC[C@@]1(O)C(=O)OCc2c1cc1n(c2=O)C(OCC(F)(F)F)c2cc3cc(O)ccc3nc2-1` (stereo partly drawn) [Example 27, 10-Hydroxy-5-trifluoroethoxycamptothecin], the mean GI50 [2] was 0.38 µM, the IC (TGI) (HOP 62) was 4.95 µM and the IC (TGI) (HOP 92) was 4.88 µM. For the same compound, the IC (TGI) (H 226) was 4.75 µM, the IC (TGI) (H 23) was 0.91 µM and the IC (TGI) (H 522) was 7.66 µM. For the same compound, the IC (TGI) (COLO 205) was 19.5 µM, the IC (TGI) (HCT 116) was 4.06 µM and the IC (TGI) (KM 12) was 10.6 µM. For the same compound, the IC (TGI) (MDA-MB-435) was 9.62 µM, the IC (TGI) (MDA-N) was 11 µM and the IC (TGI) (BT 549) was 11.4 µM. It also gave an IC (TGI) (T 47D) of 0.81 µM.
